Assay type in all cases: cell-based
Test [1] relates to platelets in platelet rich plasma (PRP). Nature of the test: Islet-induced platelet aggregation in platelet rich plasma (aggregometer). Particulars: agent added to PRP before islets. The procedure: Platelets in platelet rich plasma (PRP) and gel filtered platelets were tested in an aggregometer. Islets were added to PRP and thereafter analysed in the aggregometer. It was shown that the islets induced aggregation of the platelets (FIG. 1) and that platelets number in the sample were reduced from 375×10^9 to 236×10^9. If purified platelets without plasma proteins were used in combination with islets no aggregation and reduction in the platelet count were observed. In attempts to identify the mechanism behind the induced aggregation, an RGDS tetrapeptide to inhibit integrin binding and a monoclonal antibody against Fc receptors on platelets were used.

Test [2] has as its system human islets in ABO-compatible fresh human blood. Kind of test: Tubing loop model: human islet perifusion with ABO-compatible fresh human blood. Details: TAT: unit not given here. Particulars: after 60 min human islet perifusion, Mean ± SE(M). How it is done:
(§1) All the in vitro experiments for studies of islets contacting whole blood were performed in a tubing loop model. The experimental model is a modification of a model for testing biomaterials that has previously been described (J. Clin. Immunol. 16, 223-230 (1996)). Tubings made of polyvinylchloride (PVC, i.d.=6.3 mm, length=300 mm) were modified with immobilized heparin according to a method developed by Corline Systems AB (Uppsala, Sweden) as disclosed in international patent application no WO93/05793. Briefly, the polymer surface is modified with a high molecular weight amine compound to add primary amine groups to the surface. A soluble conjugate prepared by covalent binding of approximately 60 mol of heparin per mol of a straight-chained polyallylamine is irreversibly bonded onto the amine surface of the tubings. This procedure results in a total surface concentration of heparin of approximately 0.5 μg/cm^2. By using such heparin modified tubings it is possible to incubate the tubings with non-anticoagulated fresh human blood in a rocking device at 37° C. for one hour with only moderate activation of blood (c.f. control column in Table 1 A and 1 B below). Unmodified tubings will invariably induce complete clotting at these experimental conditions. Addition of human islets or porcine adult or fetal islets lead to some remarkable observations. Complete clotting invariably occurred with a total loss of platelets, a sharp increase in the formation of TAT and a very significant increase in the markers of the early contact phase (FXIIa and FXIa) of coagulation (C.f. Table 1 A and 1 B).
(§2) Sixty ml of non-anticoagulated blood was collected from healthy blood donors using heparin-coated equipment. U-shaped tubings with a total volume of nine ml were filled with eight ml of blood immediately followed by addition of isolated human islets or porcine adult or porcine fetal islets (500 IEQ). The tubings were then closed into loops using connectors of titanium furnished with immobilised heparin. The tubing loops were placed vertically in a rocking device and the complete apparatus was placed in an incubator at 37° C. for up to sixty minutes. At the end of the rocking period blood was collected in EDTA and the number of cells were counted in a automatic cell counter. The blood samples were then centrifuged at 4° C. (3290×g, 20 min) and EDTA plasma was collected and immediately put at −70° C. Islets retrieved after blood perifusion were prepared for immunohistochemistry.

Test [3] concerns adult porcine islets in fresh human blood. Nature of the test: Tubing loop model: adult porcine islet perifusion with fresh human blood. Particulars: for Platelets: blood supplemented with additive, Mean SE(M); for TAT: thrombin-antithrombin. Details: FNIIa-AT / TAT: unit not given here. How it is done: as §1, §2
Where [4] appears, read: after 60 min adult porcine islet perifusion.

On to RGDS [RGDS peptide], for which the “consumption of platelets when islets were added to PRP” value in test [1] (FIG. 2) was “totally abolished”. Moreover, the “aggregation of platelets when islets were added to PRP” value in test [1] (FIG. 2, FIG. 3) was “totally abolished”.
For the molecule heparin, the Platelets in test [2] (blood supplemented with additive) is listed as 114 ± 17 ×10^9. In test [2], the C3a was found to be 565 ± 143.6 ng/mL, the C5b-9 worked out at 147 ± 39.6 AU/mL, the FXIIa-AT stood at 5.4e-06 ± 1.7e-06 M and the FXIa-AT turned out to be 3.4e-07 ± 1.2e-07 M. In test [2], the Lymph. was 1.60 ± 0.20 ×10^9, the Mono. is 0.28 ± 0.06 ×10^9 and the Neutra. is given as 2.56 ± 0.43 ×10^9. For the same molecule, the TAT in test [2] (thrombin-antithrombin) is 4467 ± 2285. In test [3] (setting [4]), the C3a was determined as 486 ± 139 ng/mL, the C5b-9 is on record as 82 ± 22 AU/mL, the FXIa-AT is 0.53 ± 0.26 µM and the Lymphcytes is listed as 1.88 ± 0.11 ×10^9. Further, in test [3] (setting [4]), the Monocytes is 0.35 ± 0.05 ×10^9, the Neutrophils is on record as 3.00 ± 0.19 ×10^9, the Platelets is given as 145 ± 13.0 ×10^9 and the TAT is on record as 505 ± 162. In addition, the clotting entry in test [3] (in words, summary of Tables 1A and 1B) is “prevented clotting”. For the same molecule, the “platelet count and generation of TAT” value in test [3] (in words, summary of Tables 1A and 1B, listed as Soluble heparin) is listed as “remarkable improvement”. For the same molecule, the “platelet count and generation of TAT” value in test [3] (in words, summary of Tables 1A and 1B, listed as soluble heparin) was “remarkable improvement in preservation of the number of platelets and reduced generation of TAT”.

B1: C1-INA: the complement inhibitor C1 inactivator (C1-INA) (protein, UniProt P05155 23-500, looked up)
Plasma protease C1 inhibitor: NPNATSSSSQDPESLQDRGEGKVATTVISKMLFVEPILEVSSLPTTNSTTNSATKITANTTDEPTTQPTTEPTTQPTIQPTQPTTQLPTDSPTQPTTGSFCPGPVTLCSDLESHSTEAVLGDALVDFSLKLYHAFSAMKKVETNMAFSPFSIASLLTQVLLGAGENTKTNLESILSYPKDFTCVHQALKGFTTKGVTSVSQIFHSPDLAIRDTFVNASRTLYSSSPRVLSNNSDANLELINTWVAKNTNNKISRLLDSLPSDTRLVLLNAIYLSAKWKTTFDPKKTRMEPFHFKNSVIKVPMMNSKKYPVAHFIDQTLKAKVGQLQLSHNLSLVILVPQNLKHRLEDMEQALSPSVFKAIMEKLEMSKFQPTLLTLPRIKVTTSQDMLSIMEKLEFFDFSYDLNLCGLTEDPDLQVSAMQHQTVLELTETGVEAAAASAISVARTLLVFEVQQPFLFVLWDQQHKFPVFMGRVYDPRA
In test [3] (setting [4]), B1 had a C3a of 1094 ± 78 ng/mL, a C5b-9 of 183 ± 29 AU/mL, an FNIIa-AT of 19.65 ± 0.45 and an FXIa-AT of 2.95 ± 0.15. For the same molecule, in test [3] (setting [4]), the Lymphcytes is recorded as 1.23 ± 0.38 ×10^9, the Monocytes is given as 0.15 ± 0.01 ×10^9, the Neutrophils is recorded as 0.41 ± 0.13 ×10^9 and the Platelets is 4 ± 0 ×10^9. This molecule also came in with a TAT in test [3] (setting [4]) of 30250 ± 3450. In test [3] (in words, summary of Table 1B), the complement activation entry is recorded as “reduced complement activation” and the “effect on the coagulation parameters” value is recorded as “no detectable effect”.

The values are drawn from patent US7981873B1, “Use within transplantation surgery” (Corline Systems AB, priority 2000, dated 2011).
